Results taken from patent US7419999B2, “Gamma lactams as prostaglandin agonists and use thereof” (Applied Research Systems ARS Holding N.V., priority 2002, dated 2008).
Read-outs that look alike come from different tables or passages of the source.

Assays:
h-EP2 = h-EP2 (Homo sapiens, UniProt P43116); test: Prostaglandin EP2 receptor binding assay (3H-PGE2 SPA)
Experimental: Compounds of the invention were tested in an EP2 receptor binding assay of the following protocol. As referred to herein, the term an “EP2 receptor binding assay” designates the following protocol.

mature 10-week CD-1 mice = test: In vivo ovulation assay (mature mouse ovulation induction model); settings: for average of ova obtained: 5IU PMSG priming; for ED50: Mus musculus
Experimental: Ovulation triggering activity of compounds of the invention are tested in a mature mouse ovulation induction model.
Mature 10-week-old CD-mice are used. […] A test compound (based on solubility) is pre-dissolved in ethanol, DMSO or other reagents. Test compound is then diluted with saline or other diluents such as PBS or NP3S (5% N-methyl-pyrrolidinone/30% PEG-400/25% PEG-200/20% Propylene Glycol in saline). PMSG serves to stimulate follicule growth and maturation.
Uterus, oviducts and ovaries were collected and placed in pre-labeled dishes containing phosphate buffered saline (PBS). The collected tissues were transferred to the laboratory and intact oviduct carefully dissected out from uterus and ovary under the dissection microscope. The dissected oviducts were placed on the glass microscopic slide and covered with another slide. Two slides were taped on two edges. The numbers of ovulated ova in the oviducts were counted using upright microscope with 4× objective and recorded.
For evaluating the oral activity of this compound, two experiments were conducted, the first experiment was conducted with non-fasted animals and the second experiment was conducted in 24 h fasted animals (water provided). The compounds of the invention, according to their solubility are pre-dissolved in ethanol, DMSO or other reagents. The compounds of the invention are then diluted with saline or other diluents such as PBS or NP3S before oral administration.

h-EP4 [1] = molecular target: T1, h-EP4 (Homo sapiens, UniProt P35408); test: EP4 receptor binding assay (3H-PGE2 SPA)
T1 sequence (P35408 whole entry): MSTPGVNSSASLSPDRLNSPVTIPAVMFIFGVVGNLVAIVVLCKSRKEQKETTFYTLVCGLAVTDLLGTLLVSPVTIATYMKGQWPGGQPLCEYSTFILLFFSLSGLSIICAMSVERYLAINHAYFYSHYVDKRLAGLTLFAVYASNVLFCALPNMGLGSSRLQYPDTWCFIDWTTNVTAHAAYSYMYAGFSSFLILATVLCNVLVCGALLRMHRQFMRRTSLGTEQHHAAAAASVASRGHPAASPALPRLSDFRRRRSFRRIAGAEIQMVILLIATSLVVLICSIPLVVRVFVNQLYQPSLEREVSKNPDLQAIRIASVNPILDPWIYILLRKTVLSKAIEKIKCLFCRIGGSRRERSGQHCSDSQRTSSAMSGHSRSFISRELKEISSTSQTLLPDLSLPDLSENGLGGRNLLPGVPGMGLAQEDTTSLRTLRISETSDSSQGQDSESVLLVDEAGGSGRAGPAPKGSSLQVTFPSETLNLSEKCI
Experimental: Compounds of the invention were tested in an EP4 receptor binding assay of the following protocol.

[2] = system: methacholine-induced bronchoconstriction; test: In vivo inhibition of guinea pig methacholine-induced bronchoconstriction; settings: for ED50: Cavia porcellus
Experimental: Guinea pig pulmonary-cholinergic in vivo model is generally used to test the materials for the treatments of asthma in human (Fleisch at al. 1985, K. Pharmacol. Exp. Ther. 233: 148-157). Compounds of the invention are tested in this model.
Groups of 3 Duncan Hartley derived male or female guinea pigs weighing 250±50 g are anesthetized with pentobarbital sodium (50 mg/kg i.p., plus an additional 15 mg/kg i.p. if required) and succinylcholine chloride (2 mg/animal i.p.) is subsequently administered to prevent spontaneous respiration. Body temperature is maintained at 37° to 38° C.
The trachea is cannulated and the guinea pig is ventilated with a Harvard rodent respirator in a closed system. Tracheal pressure is recorded through a side-arm of the cannula connected to a P23ID Statham transducer. Respiratory rate is set at 50 strokes/minute with a stroke volume (approximately 1 ml/100 g) sufficient to produce a baseline tracheal pressure of 6 cm H2O. Mean arterial pressure (BP) is monitored from a cannulated carotid artery, and heart-rate (HR) is obtained from chest electrodes arranged for lead II. The jugular vein is cannulated for i.v. vehicle or drug administration in a volume of 1 ml/kg.
Cholinergic-induced bronchoconstrictor responses, reflected as increases in tracheal pressure (cm H2O), are elicited by administration of methacholine hydrochloride (10 μg/kg base weight i.v.). In vehicle-treated control animals, methacholine-induced bronchoconstriction ranges from 70 to 90 percent of its own maximum response (about 40 to 65 percent of maximum possible bronchoconstriction obtained by tracheal occlusion).
Compounds of the invention are also tested via intratracheal (IT) route of administration. In this other experiment, compound of the invention, reference compound or vehicle is administered IT 10 (5 min for experiment 1 and 2) minutes before methacholine chloride (10 μg/kg i.v.) induced bronchoconstriction. Tracheal pressure (ITP), blood pressure and heart rate are measured immediately as indicated in the material and methods sections.
MED (medium effective dose) is measured.
Compounds of the invention are administered i.v. (10 mg/kg) 5 minutes before subministration of the methacoline hydrochloride challenge in 3 guinea pigs. A 50 percent or more (≧50) inhibition of the induced bronchoconstriction relative to vehicle treated control animals is considered significant.

TNFα = test: In vivo inhibition of LPS-induced TNFa release in mice; settings: oral; Inhibitory Dose at 50% of the maximum effect
Experimental: The anti-inflammatory activity of compounds of the invention may be assessed after a LPS challenge using the following protocol:
Eight weeks old C3H/HEN mice (IFFA-CREDO, L'arbresle, France) receive an oral treatment with compounds of the invention 6 different doses (0.001, 0.01, 0.1, 1 or 3 and 10 mg/kg in 0.5% CMC/0.25% tween-20). Six mice are used by group. Fifteen minutes later, endotoxins (O111:B4 Sigma, 0.3 mg/kg) are intraperitoneally injected. Heparinized whole blood is collected by decapitation. TNFα level is determined in plasma by ELISA (R & D Systems, Abdingdon, UK). Control animals receive 0.5% CMC/0.25% tween-20 (10 ml/kg) as vehicle. Data obtained from experiments are expressed as the mean±SEM and analysed using one-way analysis of variance (ANOVA) followed by Dunnett's t-test.

h-EP4 [3] = molecular target: T1, h-EP4; test: EP4 cAMP assay in HEK293-EBNA cells transfected with pCEP4-hEP4; type: cell-based
Experimental: Compounds of the invention were tested in a total cAMP assay as follows. […] After overnight incubation, the medium was removed from each well and replaced with 45 μl of assay medium consisted of phenol red free D-MEM/F-12, 0.1% BSA (GibcoBRL) and 0.1 mM3-isobutyl-1-methyl-xanthine (Sigma). […] Total cAMP (intra- and extra-cellular) was measured by using a cAMP-screen ELISA System (Tropix, #CS1000).

[4] = po, Table 3, p.o., read-out: Ovulation Induction (ED50, mg/kg) p.o.
[5] = sc, Table 3, s.c., read-out: Ovulation Induction (ED50, mg/kg) s.c.
[6] = sc, read-out: calculated ED50, ovulation induction
[7] = read-out: Ki measured as described in Example 83 (EP4)
[8] = Table 2, total cAMP, read-out: h-EP4 EC50

Chain of h-EP2 (P43116 whole entry): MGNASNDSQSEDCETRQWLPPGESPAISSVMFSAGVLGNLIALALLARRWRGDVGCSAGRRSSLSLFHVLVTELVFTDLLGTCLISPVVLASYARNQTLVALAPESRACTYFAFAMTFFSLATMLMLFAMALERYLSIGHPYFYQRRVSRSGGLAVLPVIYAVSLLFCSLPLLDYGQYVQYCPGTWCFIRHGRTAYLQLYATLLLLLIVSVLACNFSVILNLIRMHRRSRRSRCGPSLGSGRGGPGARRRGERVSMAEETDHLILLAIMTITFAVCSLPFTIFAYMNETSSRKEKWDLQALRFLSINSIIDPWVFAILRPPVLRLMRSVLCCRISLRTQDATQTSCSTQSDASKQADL

| Compound | Ki (h-EP2; Table 1, read-out: h-EP2 Ki) [nM] | ED50 (mature 10-week CD-1 mice; [4]) [mg/kg] | ED50 (mature 10-week CD-1 mice; [5]) [mg/kg] | Ki (h-EP4 [1]; Table 1, read-out: h-EP4 Ki) [nM] | Ki (h-EP4 [1]; Table 2, read-out: h-EP4 Ki) [nM] | also measured |
| --- | --- | --- | --- | --- | --- | --- |
| CCCCC[C@H](O)/C=C/[C@H]1CCC(=O)N1CCc1ccc(C(=O)O)cc1 [Example 1, 4-(2-{(2R)-2-[(1E,3S)-3-hydroxyoct-1-enyl]-5-oxopyrrolidin-1-yl}ethyl) benzoic acid] | 120 | 22 | 3.8 | 2 | – | average of ova obtained (mature 10-week CD-1 mice; Group 4: 10 mg/kg s.c.): an average of 25 ova were obtained for Group 4;; average of ova obtained (mature 10-week CD-1 mice; Group 5: 30 mg/kg s.c.): an average of 22.4 ova were obtained for Group 5;; ED50 (mature 10-week CD-1 mice; [6]): 3.9 mg/kg; ED50 (mature 10-week CD-1 mice; oral, 24 h fasted animals, read-out: calculated ED50, ovulation induction): 21.1 mg/kg; ED50 (mature 10-week CD-1 mice; oral, non-fasted animals, read-out: calculated ED50, ovulation induction): 22 mg/kg; activity in the mice ovulation induction model (mature 10-week CD-1 mice; subcutaneous (sc), oral (po) and intravenous (iv) routes): active; ED50 ([2]; iv, read-out: calculated effective dose (ED50), bronchoconstriction): ~0.0017 mg/kg; ED50 ([2]; IT route of administration, read-out: calculated ED50, bronchoconstriction): 0.0024 mg/kg; calculated ED50, bronchoconstriction ([2]; IT route of administration): 0.72 μg/GP; effect on blood pressure and heart beat ([2]; i.v., 3 10^−5 up to 0.3 mg/kg): not altering neither blood pressure nor heart beat |
| CCCCC(C)(C)C(O)/C=C/[C@H]1CCC(=O)N1CCc1ccc(C(=O)O)cc1 (stereo in doubt) [Example 6, 4-(2-{2-[(1E,3R)-3-hydroxy-4,4-dimethyloct-1-enyl]-5-oxopyrrolidin-1-yl}ethyl)benzoic acid] | 2100 | – | – | 20 | – | – |
| O=C(O)c1ccc(CCN2C(=O)CCN2CCC(O)Cc2cccc(I)c2)cc1 (centres unmarked) [4-(2-{2-.[4-(3-iodophenyl)-3-hydroxybutyl]-5-oxopyrazolidin-1-yl}ethyl)benzoic acid, reference compound] | – | – | – | – | – | Ki (h-EP2; read-out: Ki on EP2): 4450 nM; release of ova (mature 10-week CD-1 mice; orally, single dose of 20 mg/kg): 10±3 ova; Ki (h-EP4 [1]; [7]): 14 nM |
| O=C(O)c1ccc(CCN2C(=O)CC[C@@H]2/C=C/[C@@H](O)Cc2ccccc2)cc1 [Example 31, 4-[2-{(2R)-2-[(1E,3S)-3-hydroxy-4-phenylbut-1-enyl]-5-oxopyrrolidin-1-yl}ethyl)benzoic acid] | – | 1 | 0.32 | – | 0.05 | ID50 (TNFα): 0.003 mg/kg |
| CCCCCC[C@H](O)/C=C/[C@H]1CCC(=O)N1CCc1ccc(C(=O)O)cc1 [Example 10, 4-(2-{(2R)-2-[(1E,3S)-3-hydroxynon-1-enyl]-5-oxopyrrolidin-1-yl}ethyl) benzoic acid] | – | – | – | – | 1 | – |
| CCCCC(C)(C)C(O)/C=C/[C@H]1CCC(=O)N1CCc1ccc(C(=O)O)cc1 (stereo in doubt) [Example 5, 4-(2-{2-[(1E,3S)-3-hydroxy-4,4-dimethyloct-1-enyl]-5-oxopyrrolidin-1-yl}ethyl)benzoic acid] | 1240 | 18 | 3 | 0.732 | – | EC50 (h-EP4 [3]; [8]): 0.014 nM |
| CS(=O)(=O)NC(=O)CCC/C=C\C[C@H]1C(=O)C[C@@H](O)[C@@H]1/C=C/[C@@H](O)COc1ccccc1 [Sulprostone, reference compound] | – | – | > 27 | – | 7740 | – |
| CCCC1([C@H](O)C/C=C/[C@H]2[C@H](O)CC(=O)[C@@H]2CCCCCCC(=O)OC)CCC1 [Butaprost, reference compound] | – | – | > 30 | – | > 10000 | – |
| O=C(O)c1ccc(CCN2C(=O)CC[C@@H]2/C=C/[C@H](O)C2(c3ccccc3)CC2)cc1 [Example 8, 4-(2-{(2R)-2-[(1E,3S)-3-hydroxy-3-(1-phenylcyclopropyl)prop-1-enyl]-5-oxopyrrolidin-1-yl}ethyl)benzoic acid] | 1930 | – | – | 25 | – | – |
| O=C(O)c1ccc(CCN2C(=O)CCN2CCC(O)Cc2cccc(C(F)(F)F)c2)cc1 (centres unmarked) [4-[2-(2-{3-hydroxy-4-[3-(trifluoromethyl)phenyl]butyl}-5-oxopyrazolidin-1-yl)ethyl]benzoic acid, reference compound] | – | – | – | – | – | EC50 (h-EP4 [3]; read-out: EC50 measured as described in Example 84 (EP4)): 0.2 nM; ED50 (mature 10-week CD-1 mice; [6]): 5 mg/kg; Ki (h-EP4 [1]; [7]): 23 nM |
| CCCCC[C@H](O)/C=C/[C@H]1[C@H](O)CC(=O)[C@@H]1C/C=C\CCCC(=O)O [PGE2, reference compound] | – | – | – | – | – | average of ova obtained (mature 10-week CD-1 mice; Group 3: 13.5 mg/kg): an average of 19.4 ova were obtained for Group 3; |
| O=C(O)c1ccc(CCN2C(=O)CC[C@@H]2/C=C/[C@@H](O)C2(c3ccccc3)CC2)cc1 [Example 7, 4-(2-{(2R)-2-[(1E,3R)-3-hydroxy-3-(1-phenylcyclopropyl)prop-1-enyl]-5 oxopyrrolidin-1-yl}ethyl)benzoic acid] | 220 | – | 0.73 | 16 | 2 | – |
| CCCCC1([C@H](O)/C=C/[C@H]2CCC(=O)N2CCc2ccc(C(=O)O)cc2)CCC1 [Example 45, 4-(2-{(2R)-2-[(1E,3R)-3-(1-butylcyclobutyl)-3-hydroxyprop-1-enyl]-5-oxopyrrolidin-1-yl}ethyl)benzoic acid] | – | 1 | – | – | 2 | EC50 (h-EP4 [3]; [8]): 0.3 nM; ID50 (TNFα): 0.010 mg/kg |
| O=C(O)c1ccc(CCN2C(=O)CC[C@@H]2/C=C/[C@@H](O)Cc2cccc(Cl)c2)cc1 [Example 9, 4-(2-{(2R)-2-[(1E,3S)-3-hydroxy-4-(3-chlorophenyl)but-1-enyl]-5-oxopyrrolidin-1-yl}ethyl)benzoic acid] | – | 1 | – | – | 0.5 | EC50 (h-EP4 [3]; [8]): 30 nM |
